These results are taken from US10040781B2, “Tank-binding kinase inhibitor compounds” (Gilead Sciences, Inc., priority 2014, dated 2018).

Broadly, the pIC50 is −log10 of the IC50, conventionally taken in molar units.

One assay addresses hJAK2 (Homo sapiens (Human), UniProt O60674). The assay is described as follows: hJAK2 LANCE TR-FRET enzymatic assay. Type of assay: biochemical. The note with it: read-out: JAK2 IC50. (In general: Time-resolved FRET reads energy transfer from a long-lived donor to a nearby acceptor.)
The target of another assay is IKKε (Homo sapiens (Human), UniProt Q14164). Put plainly: IKKε TR-FRET enzymatic assay. The class given is biochemical. Conditions: TR-FRET, 2×Km ATP; geometric mean of minimum four determinations; read-out: IKKe IC50.
The target in a further assay is TBK1 (Homo sapiens (Human), UniProt Q9UHD2). The assay is described as follows: TBK1 TR-FRET enzymatic assay.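 Also: phosphorylation of a biotinylated Ser/Thr peptide by purified full-length recombinant TBK1, read by TR-FRET after 240 min at 25 °C, IC50 is the geometric mean of at least four runs.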

pIC50: −log10 of the molar value.

Chain of hJAK2 (O60674 whole entry): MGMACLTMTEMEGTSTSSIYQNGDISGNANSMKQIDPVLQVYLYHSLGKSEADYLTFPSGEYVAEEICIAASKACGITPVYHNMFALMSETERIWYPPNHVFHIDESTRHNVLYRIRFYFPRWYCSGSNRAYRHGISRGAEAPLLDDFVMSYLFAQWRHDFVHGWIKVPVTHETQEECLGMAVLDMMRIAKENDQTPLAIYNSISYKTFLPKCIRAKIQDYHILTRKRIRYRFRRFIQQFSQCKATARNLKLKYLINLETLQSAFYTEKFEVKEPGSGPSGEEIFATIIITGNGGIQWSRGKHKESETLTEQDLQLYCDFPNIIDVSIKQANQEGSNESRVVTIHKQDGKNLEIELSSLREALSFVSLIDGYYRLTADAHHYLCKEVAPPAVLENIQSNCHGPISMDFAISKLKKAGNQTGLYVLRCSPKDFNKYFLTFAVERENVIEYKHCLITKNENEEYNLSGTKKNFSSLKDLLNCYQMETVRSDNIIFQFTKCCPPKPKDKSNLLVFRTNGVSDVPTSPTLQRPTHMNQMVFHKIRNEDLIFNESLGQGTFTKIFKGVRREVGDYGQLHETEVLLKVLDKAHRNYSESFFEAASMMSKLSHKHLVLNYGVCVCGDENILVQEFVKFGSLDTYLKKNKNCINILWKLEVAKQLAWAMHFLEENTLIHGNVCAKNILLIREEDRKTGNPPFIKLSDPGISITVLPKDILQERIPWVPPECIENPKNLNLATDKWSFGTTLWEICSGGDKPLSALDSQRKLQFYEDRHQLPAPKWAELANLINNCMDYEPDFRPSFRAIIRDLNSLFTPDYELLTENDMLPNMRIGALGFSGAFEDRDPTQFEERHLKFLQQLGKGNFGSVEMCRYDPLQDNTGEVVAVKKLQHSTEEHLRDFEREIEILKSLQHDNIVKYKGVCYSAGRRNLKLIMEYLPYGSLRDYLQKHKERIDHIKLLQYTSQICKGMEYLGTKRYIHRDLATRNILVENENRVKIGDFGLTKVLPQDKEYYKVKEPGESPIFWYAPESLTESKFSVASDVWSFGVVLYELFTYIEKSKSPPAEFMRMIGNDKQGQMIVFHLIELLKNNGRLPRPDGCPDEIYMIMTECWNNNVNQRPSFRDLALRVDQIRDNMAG
Chain of TBK1 (Q9UHD2 whole entry): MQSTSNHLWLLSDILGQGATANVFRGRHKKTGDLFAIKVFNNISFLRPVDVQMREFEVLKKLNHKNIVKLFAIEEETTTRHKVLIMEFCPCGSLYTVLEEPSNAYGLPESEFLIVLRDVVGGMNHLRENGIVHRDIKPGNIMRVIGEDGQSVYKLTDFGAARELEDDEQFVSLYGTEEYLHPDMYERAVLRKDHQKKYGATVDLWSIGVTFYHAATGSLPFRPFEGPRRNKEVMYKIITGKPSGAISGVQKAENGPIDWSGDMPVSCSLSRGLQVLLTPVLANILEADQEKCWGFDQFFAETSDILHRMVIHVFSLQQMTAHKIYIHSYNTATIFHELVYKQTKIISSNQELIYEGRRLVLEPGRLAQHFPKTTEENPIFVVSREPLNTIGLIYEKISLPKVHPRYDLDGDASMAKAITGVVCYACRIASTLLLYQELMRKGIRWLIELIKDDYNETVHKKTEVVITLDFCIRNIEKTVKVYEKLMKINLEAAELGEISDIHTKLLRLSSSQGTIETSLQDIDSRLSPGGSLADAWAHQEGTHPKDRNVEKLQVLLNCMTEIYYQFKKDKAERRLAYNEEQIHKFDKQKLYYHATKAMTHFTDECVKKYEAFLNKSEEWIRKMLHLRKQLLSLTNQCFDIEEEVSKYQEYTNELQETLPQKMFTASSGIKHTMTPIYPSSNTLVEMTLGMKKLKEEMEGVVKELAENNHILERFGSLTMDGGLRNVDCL
Chain of IKKε (Q14164 whole entry): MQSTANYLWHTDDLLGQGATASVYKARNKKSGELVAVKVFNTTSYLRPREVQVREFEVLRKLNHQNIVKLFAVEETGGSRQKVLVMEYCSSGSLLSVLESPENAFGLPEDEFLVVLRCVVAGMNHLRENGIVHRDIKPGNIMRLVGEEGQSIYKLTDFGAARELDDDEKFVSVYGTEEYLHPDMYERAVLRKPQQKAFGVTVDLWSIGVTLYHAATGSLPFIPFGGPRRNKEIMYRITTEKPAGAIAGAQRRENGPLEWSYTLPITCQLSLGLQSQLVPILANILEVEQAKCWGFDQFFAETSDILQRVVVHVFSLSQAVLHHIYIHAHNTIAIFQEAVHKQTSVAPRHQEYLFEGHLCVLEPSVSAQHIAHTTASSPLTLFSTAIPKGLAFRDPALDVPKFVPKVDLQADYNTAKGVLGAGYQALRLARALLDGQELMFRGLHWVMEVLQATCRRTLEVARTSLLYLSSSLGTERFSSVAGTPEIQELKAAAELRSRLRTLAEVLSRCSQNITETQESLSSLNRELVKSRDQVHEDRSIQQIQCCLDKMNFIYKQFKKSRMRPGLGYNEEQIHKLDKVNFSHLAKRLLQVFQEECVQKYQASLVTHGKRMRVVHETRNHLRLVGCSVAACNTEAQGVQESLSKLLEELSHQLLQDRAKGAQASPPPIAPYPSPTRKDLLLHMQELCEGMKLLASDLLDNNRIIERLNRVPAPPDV

For the molecule `CC1(C)CN(C(=O)CCO)C[C@@H](F)[C@H]1Oc1ccc(-c2ncnc(Nc3ccc(N4CCN(C5COC5)CC4)cc3)n2)cc1C#N` [Example 443, 2-(((4S,5R)-5-fluoro-1-(3-hydroxypropanoyl)-3,3-dimethylpiperidin-4-yl)oxy)-5-(4-((4-(4-(oxetan-3-yl)piperazin-1-yl)phenyl)amino)-1,3,5-triazin-2-yl)benzonitrile], the pIC50 is 6.99 at hJAK2, 8.22 at IKKε and 8.52 at TBK1.
As to `CC1(C)CN(C(=O)[C@@H]2CCC(=O)N2)C[C@H](F)[C@@H]1Oc1ccc(-c2ncnc(Nc3ccc(N4CCN(C5COC5)CC4)cc3)n2)cc1C#N` [Example 444], the figures for the pIC50 at hJAK2, at IKKε and against TBK1 were 6.32, 7.06 and 7.57, respectively.
`CC1(C)CN(C(=O)[C@@H]2CCC(=O)N2)C[C@@H](F)[C@H]1Oc1ccc(-c2ncnc(Nc3ccc(N4CCN(C5COC5)CC4)cc3)n2)cc1C#N` [Example 445, 2-(((4S,5R)-5-fluoro-3,3-dimethyl-1-((S)-5-oxopyrrolidine-2-carbonyl)piperidin-4-yl)oxy)-5-(4-((4-(4-(oxetan-3-yl)piperazin-1-yl)phenyl)amino)-1,3,5-triazin-2-yl)benzonitrile]: the pIC50 is 7.05 at hJAK2, 8.30 at IKKε and 8.30 against TBK1.
Take `N#Cc1cc(-c2ncnc(Nc3ccc(N4CCN(C5COC5)CC4)cc3)n2)ccc1OC1CNC(=O)C(F)(F)C1` (stereo not drawn) [Example 446, 2-((5,5-difluoro-6-oxopiperidin-3-yl)oxy)-5-(4-((4-(4-(oxetan-3-yl)piperazin-1-yl)phenyl)amino)-1,3,5-triazin-2-yl)benzonitrile]: the pIC50 on hJAK2 was 6.82; on IKKε, 7.48; against TBK1, 7.32.
The corresponding values for `NC(=O)c1cc(-c2ncnc(Nc3ccc(N4CCN(C5COC5)CC4)cc3)n2)ccc1OC1CNC(=O)C(F)(F)C1` (stereo not drawn) [Example 447, 2-((5,5-difluoro-6-oxopiperidin-3-yl)oxy)-5-(4-((4-(4-(oxetan-3-yl)piperazin-1-yl)phenyl)amino)-1,3,5-triazin-2-yl)benzamide] are 7.82, 6.71 and 7.19.
On to `N#Cc1cc(-c2ncnc(Nc3ccc(N4CCN(C5COC5)CC4)cc3)n2)ccc1O[C@H]1CCN(C(=O)c2ccnn2CCO)C[C@H]1F` [Example 448, 2-(((3R,4S)-3-fluoro-1-(1-(2-hydroxyethyl)-1H-pyrazole-5-carbonyl)piperidin-4-yl)oxy)-5-(4-((4-(4-(oxetan-3-yl)piperazin-1-yl)phenyl)amino)-1,3,5-triazin-2-yl)benzonitrile], for which the negative logarithm of the IC50 (pIC50) at hJAK2 is 6.67; at IKKε it was 7.08; against TBK1, 7.27.
The corresponding values for `CC1(C)CN(C(=O)CC#N)C[C@H](F)[C@@H]1Oc1ccc(-c2ncnc(Nc3ccc(N4CCN(C5COC5)CC4)cc3)n2)cc1C#N` [Example 449, 2-(((4R,5S)-1-(2-cyanoacetyl)-5-fluoro-3,3-dimethylpiperidin-4-yl)oxy)-5-(4-((4-(4-(oxetan-3-yl)piperazin-1-yl)phenyl)amino)-1,3,5-triazin-2-yl)benzonitrile] are 6.35, 7.23 and 7.46.
The corresponding values for `CC1(C)CN(C(=O)CC#N)C[C@@H](F)[C@H]1Oc1ccc(-c2ncnc(Nc3ccc(N4CCN(C5COC5)CC4)cc3)n2)cc1C#N` [Example 450, 2-(((4S,5R)-1-(2-cyanoacetyl)-5-fluoro-3,3-dimethylpiperidin-4-yl)oxy)-5-(4-((4-(4-(oxetan-3-yl)piperazin-1-yl)phenyl)amino)-1,3,5-triazin-2-yl)benzonitrile] are 7.32, 8.52 and 8.52.
